Experimental data as given in patent US8697840B2, “Peptide inhibition of lung epithelial apoptosis and pulmonary fibrosis” (Board of Regents, The University of Texas System, priority 2008, dated 2014).

What was measured:
[1] = test system: bleomycin-induced lung epithelial cell (LEC) apoptosis; experiment: TUNEL staining for apoptosis of lung sections of bleo-treated mice; type: in vivo, mouse; details: for Lung epithelial cell apoptosis: appearance of cells / Lung epithelial cell apoptosis: cell death: bleo-treated animals, peptide one day after bleo; for Lung epithelial cell apoptosis: appearance of cells: lung tissue day 21; for Lung epithelial cell apoptosis: cell death: lung tissue day 21, TUNEL; for apoptosis (TUNEL positive cells): peptide 4.5 μM i.p. on day 1 and 2, bleomycin 40 μg/50 μl intranasal on day 2, 24, 48 and 72 h
Procedure: The mice were sacrificed 24, 48 and 72 h later. Lungs were excised, inflated and fixed in formalin, and […] sections were analyzed by TUNEL staining. […]

[2] = test system: bleo-induced lung injury in the mouse; experiment: Lung desmosine (elastin) after bleo-induced lung injury; type: in vivo; details: 50 μg Bleo intranasally; 10 mM peptide in 0.1 ml osmotic pump i.p. one day later; lungs after 21 days
Procedure: FIGS. 10A and 10B are graphs showing the effect of PP-1 on fibrosis following bleo-induced lung injury in the mouse. […] 24 h after bleo, 0.1 ml osmotic pump filled with 10 mM PP-1 (designated “Bleo+PP” in Figures) or CP1 control scrambled peptide (“Bleo+CP1”) were implanted intraperitoneally. Lungs were harvested after 21 days, homogenized and the homogenates were subjected to the analysis of hydroxyproline or desmosine levels.
Lungs were harvested after 21 days, homogenized and the homogenates were subjected to the analysis of hydroxyproline as above (FIG. 10A) or desmosine (FIG. 10B). The effect of PP-1 on fibrosis in bleo-induced mouse lung injury was evaluated. Mice were treated with saline or 50 μg Bleo intranasally were implanted one day later with, 0.1 ml osmotic pumps i.p. The pumps were filled with either 10 mM (2.92 mg/100 μl) PP-1 (“Bleo+PP-1”) or control scrambled peptide CP-1 (“Bleo+CP-1”).

p53 [3] = experiment: Western blot of lung homogenates of bleo-treated mice: p53; type: in vivo, mouse; details: 40 μg bleomycin intranasally, 10 mM peptide i.p. by 0.1 ml osmotic pump after 24 h, day 7
Procedure: (§1) Mice were treated intranasally with 50 μl saline (SAL; control) or an equal volume of a 40 μg bleomycin solution (Bleo). After 24 h, 10 mM PP-1 (“Bleo+PP-1”) or control peptide (Bleo+CP-1) were given intraperitoneally using a 0.1 ml osmotic pump. Lungs were excised on day 7, bronchoalveolar lavage (BAL) fluid (“B”), lung homogenates (“H”) and membrane proteins (uPAR) were analyzed by Western blotting using antibodies specific for the murine proteins. (The same blot (“H”) was then stripped and analyzed for β-actin confirm equivalent loading of the lanes)
(§2) Mice were treated intranasally with 50 μl saline or an equal volume of a 40 μg bleomycin solution. After 24 h, 10 mM PP-1 or the same concentration of control peptide CP-1 were given intraperitoneally using a 0.1 ml osmotic pump. Lungs were excised on day 7.
(§3) Lung tissue was chopped into small pieces with fine scissors and rinsed 3× with PBS. The tissues were then homogenized in 1 ml of extraction buffer (25 mM Tris-HCl, pH 7.9. 0.5 mM EDTA and 0.1 mM PMSF) and the homogenate was centrifuged at 12,000 g for 15 min at 4° C. […] Protein content was measured using a BioRad protein assay kit. […] Protein was detected by enhanced chemiluminescence (ECL). […]
(§4) Mice were treated intranasally with saline (controls) are indicated (SAL). […] (The same blot (H) was later stripped and analyzed for β-actin confirm equivalent loading of the lanes)

uPA [4] = experiment: Western blot of lungs of bleo-treated mice: uPA; type: in vivo, mouse; details: 40 μg bleomycin intranasally, 10 mM peptide i.p. by 0.1 ml osmotic pump after 24 h, day 7
Procedure: as §1, §2, §3, §4

PAI-1 = experiment: Western blot of BAL fluid and lung homogenates of bleo-treated mice: PAI-1; type: in vivo, mouse; details: 40 μg bleomycin intranasally, day 7; for PAI-1 expression in lung homogenates: 10 mM peptide i.p. by 0.1 ml osmotic pump after 24 h
Procedure: as §1, §2
Lung tissue was chopped into small pieces with fine scissors and rinsed 3× with PBS. The tissues were then homogenized in 1 ml of extraction buffer (25 mM Tris-HCl, pH 7.9. 0.5 mM EDTA and 0.1 mM PMSF) and the homogenate was centrifuged at 12,000 g for 15 min at 4° C. The supernatant was removed and referred to as the crude extract. Protein content was measured using a BioRad protein assay kit. Cytosolic proteins were separated by SDS-PAGE and transferred to a nitrocellulose membrane which was blocked with 1% BSA in a wash buffer for 1 h at room temperature followed by overnight incubation with antibodies specific for uPA, PAI-1 or p53 in the same buffer at 4° C. Protein was detected by enhanced chemiluminescence (ECL). Membranes were stripped and immunoblotted for β-actin.
Mice were treated intranasally with saline (controls) are indicated (SAL). Mice receiving an equal volume of a 40 μg bleomycin solution are indicated (Bleo). Mice given PP-1 are indicated (PP-1) and those given control peptide are indicated (CP-1). BAL fluid is indicated (B), and lung homogenates (H) and membrane proteins (uPAR). Blots were probed with antibodies specific for the relevant murine proteins. (The same blot (H) was later stripped and analyzed for β-actin confirm equivalent loading of the lanes)

uPA [5] = experiment: IHC of lung tissue of bleo-treated mice: uPA; type: in vivo, mouse; details: bleomycin-treated mice, 48-72 h
Procedure: (§5) For immunohistochemical (IHC) analysis, lungs were inflated at constant pressure of 20 cm H2O, removed and fixed overnight in 2% paraformaldehyde in PBS. Tissue was dehydrated by passage through a standard alcohol series and was embedded in paraffin. 5 μm sections were deparaffinized with xylene followed by incubation with 100% and 95% alcohol. After 10 min of antigen retrieval, the slides were incubated with H2O2 for 30 min to quench endogenous peroxidase. Slides were incubated overnight with the respective antibodies in PBS containing 0.1% Tween 20 and further processed using Lab vision kit (Freemont Calif.).
(§6) An IHC study was conducted to analyze lung tissue for expression p53, uPA, uPAR, PAI-1 and cleaved caspase 3 (Table 2). […] These IHC observations were confirmed by Western blotting (see Example II and FIG. 5).

uPAR [6] = experiment: IHC of lung tissue of bleo-treated mice: uPAR; type: in vivo, mouse; details: bleomycin-treated mice, 48-72 h
Procedure: as §5, §6

uPAR [7] = experiment: Western blot of lung membrane proteins of bleo-treated mice: uPAR; type: in vivo, mouse; details: 40 μg bleomycin intranasally, 10 mM peptide i.p. by 0.1 ml osmotic pump after 24 h, day 7
Procedure: as §1, §2
After preparation of the cytosolic extract, above, the pellet obtained after the initial centrifugation was resuspended in a membrane extraction buffer containing β-D-glucopyranoside and the suspension was homogenized for 5 to 10 min. […] The resulting clarified supernatant was analyzed for uPAR expression by Western blotting with anti-uPAR antibody and detected by ECL.
as §4

p53 [8] = experiment: IHC of lung tissue of bleo-treated mice: p53; type: in vivo, mouse; details: bleomycin-treated mice, 24-72 h
Procedure: as §5, §6

cleaved PARP = experiment: IHC of lung sections of bleo-treated mice: cleaved PARP; type: in vivo, mouse; details: peptide 4.5 μM i.p. days 1 and 2, bleomycin 40 μg/50 μl intranasal day 2; up to 72 h
Procedure: On day 2 mice were treated with bleomycin (40 μg/50μl) by intranasal instillation. Mice were sacrificed 24, 48 and 72 h after later, lungs were excised, inflated and fixed in formalin, and […] sections were analyzed by immunohistochemistry (IHC) using an antibody specific for cleaved PARP.
as §5

Substance | Lung epithelial cell apoptosis: appearance of cells [1] | Lung epithelial cell apoptosis: cell death [1] | apoptosis (TUNEL positive cells) [1] | lung desmosine levels [2] | p53 expression in lung homogenates (p53 [3]) | uPA levels in lung (uPA [4]) | PAI-1 expression in lung homogenates (PAI-1) | PAI-1 in BAL fluid (PAI-1) | uPA levels in lung tissue (IHC) (uPA [5]) | uPAR levels in lung tissue (IHC) (uPAR [6]) | uPAR levels in lung (membrane proteins) (uPAR [7]) | p53 expression in lung tissue (IHC) (p53 [8]) | cleavage (degradation) of PARP in lung (cleaved PARP) | bleo-induced mouse lung injury (TUNEL staining for apoptosis) ([1]; bleo 50 μg/ml intranasal, peptide intranasally 3.35 μM (375 μg/50 μl) on day 2, 4 and 6, lungs after 21 days) | protection of LECs from bleo-induced lung injury ([1]; conclusion from Table 3, day 21) [%] | bleo-induced LEC apoptosis (apoptotic scores) ([1]; i.p. 0.1 ml osmotic minipump, 10 mM peptide, one day after intranasal bleo, lungs after 16 days)
Bleomycin | Fibrotic cells, | 80% cell death | increased apoptosis (TUNEL positive cells) as early as 24 h after exposure | significant increase in lung hydroxyproline or desmosine levels | increased | suppression | increased | increased | uPA and uPAR levels fell between 48-72 h of bleomycin exposure | uPA and uPAR levels fell between 48-72 h of bleomycin exposure | suppression | induced p53 expression beginning at 48 h and increasing up to 72 h | induced cleavage of PARP after 72 h of exposure |  |  | 
DGIWKASFTTFTVTKYWFYR [PP-1, residues 82-101 of human Cav-1, the caveolin-1 scaffolding domain] | No fibrosis, | 12% cell | reversed bleomycin-induced apoptosis | significantly reduced, to normal levels | inhibited the increased p53 and PAI-1 expression | enhanced the suppressed uPA and uPAR levels | inhibited the increased p53 and PAI-1 expression |  | reversed this suppression | reversed this suppression | enhanced the suppressed uPA and uPAR levels | blocked bleomycin induced p53 expression | reversed such PARP degradation | prevented bleo-induced mouse lung injury in vivo | > 90 | protect against bleo-induced LEC apoptosis
